Source: patent US11807625B2, “Capsid inhibitors for the prevention of HIV” (Gilead Sciences, Inc., priority 2019, dated 2023)
Where two headings read alike, the source gives them in different places.

Assay: PK of compound of Formula (Ia) after single subcutaneous dose of solution formulations in beagle dogs
Format: in vivo
Procedure: Formulations containing the compound of Formula (Ia), or a pharmaceutically acceptable salt thereof, were prepared as solutions and optionally administered subcutaneously or intramuscularly to rats, rabbits, and/or dogs.
A solution of about 400 mg/mL of the compound of Formula (Ia) having 17.00 w/w % water, 36.40 w/w % PEG 300, 35.20 w/w % of a sodium salt of a compound of Formula (Ia), 5.00 w/w % ethanol, and 6.40 w/w % poloxamer 188 was prepared. The solution was administered subcutaneously to male beagle dogs at a dose level of about 12 mg/kg and male Wistar Han rats at a dose level of about 50 mg/kg. The pharmacokinetic profiles were determined, and the results for dogs are summarized in Table and Table, while the results for rats are summarized in Table and Table below.
A solution of about 500 mg/mL of the compound of Formula (Ia) having 14.06 w/w % water, 30.12 w/w % PEG 300, […] of a sodium salt of a compound of Formula (Ia), 5.00 w/w % ethanol, and 6.40 w/w % poloxamer 188 was prepared. The solution was administered subcutaneously to male beagle dogs at a dose level of about 12 mg/kg and male Wistar Han rats at a dose level of about 50 mg/kg. The pharmacokinetic profiles were determined, and the results for dogs are summarized in Table and Table, while the results for rats are summarized in Table and Table below.
A solution of about 300 mg/mL of the compound of Formula (Ia) having 23.33 w/w % water, 48.99 w/w % PEG 300, 26.47 w/w % of a sodium salt of a compound of Formula (Ia), and 1.21 w/w % poloxamer 188 was prepared. The solution was administered subcutaneously to male beagle dogs at a dose level of about 6 mg/kg and male Wistar Han rats at a dose level of about 50 mg/kg. The pharmacokinetic profiles were determined, and the results for dogs are summarized in Table and Table, while the results for rats are summarized in Table and Table below.
A solution of about 400 mg/mL of the compound of Formula (Ia) having 18.80 w/w % water, 40.25 w/w % PEG 300, 34.38 w/w % of a sodium salt of a compound of Formula (Ia), 5.00 w/w % ethanol, and 1.57 w/w % poloxamer 188 was prepared. The solution was administered subcutaneously to male beagle dogs at a dose level of about 12 mg/kg and male Wistar Han rats at a dose level of about 50 mg/kg. The pharmacokinetic profiles were determined, and the results for dogs are summarized in Table and Table, while the results for rats are summarized in Table and Table below.
A solution of about 500 mg/mL of the compound of Formula (Ia) having 16.29 w/w % water, 34.88 w/w % PEG 300, 41.92 w/w % of a sodium salt of a compound of Formula (Ia), 5.00 w/w % ethanol, and 1.91 w/w % poloxamer 188 was prepared. The solution was administered subcutaneously to male beagle dogs at a dose level of about 12 mg/kg and male Wistar Han rats at a dose level of about 50 mg/kg. The pharmacokinetic profiles were determined, and the results for dogs are summarized in Table and Table, while the results for rats are summarized in Table and Table below.
A solution of about 400 mg/mL of the compound of Formula (Ia) having 20.90 w/w % water, 44.72 w/w % PEG 300, and 34.38 w/w % of a sodium salt of a compound of Formula (Ia) was prepared. The solution was administered subcutaneously to male beagle dogs at a dose level of about 12 mg/kg and male Wistar Han rats at a dose level of about 50 mg/kg. The pharmacokinetic profiles were determined, and the results for dogs are summarized in Table and Table, while the results for rats are summarized in Table and Table below.
A solution of about 400 mg/mL of the compound of Formula (Ia) having 19.90 w/w % water, 42.59 w/w % PEG 300, 34.38 w/w % of a sodium salt of a compound of Formula (Ia), and 3.13 w/w % poloxamer 188 was prepared. The solution was administered subcutaneously to male beagle dogs at a dose level of about 12 mg/kg and male Wistar Han rats at a dose level of about 50 mg/kg. […]

[1] = male, beagle, dog, plasma, sc, 6 mg/kg, individual dogs, SC 6 mg/kg, solution V, 300 mg/mL
[2] = male, beagle, dog, plasma, sc, 6 mg/kg, mean, n = 3 dogs, SC 6 mg/kg, solution V, 300 mg/mL
[3] = male, beagle, dog, plasma, sc, 6 mg/kg, mean ± SD, n = 3 dogs, SC 6 mg/kg, solution V, 300 mg/mL

Compound: CC(C)(C#Cc1ccc(-c2ccc(Cl)c3c(NS(C)(=O)=O)nn(CC(F)(F)F)c23)c([C@H](Cc2cc(F)cc(F)c2)NC(=O)Cn2nc(C(F)(F)F)c3c2C(F)(F)[C@@H]2C[C@H]32)n1)S(C)(=O)=O [compound of Formula (Ia)]
- Plasma concentration (beagle dogs, SC 12 mg/kg, 400 mg/mL solution W (5.00% ethanol, 1.57% poloxamer 188), 1.00 h, animals #1-#3): BLQ
- concentration at 3 h [1]: 2.26 nM
- concentration at 3 h (male, beagle, dog, plasma, sc, 6 mg/kg, mean (dog #2 BLQ), SC 6 mg/kg, solution V, 300 mg/mL): 2.75 nM
- concentration at 8 h [1]: 8.26 nM
- concentration at 8 h [2]: 10.4 nM
- concentration at 24 h [1]: 22.3 nM
- concentration at 24 h [2]: 23.5 nM
- concentration at 48 h [1]: 37.1 nM
- concentration at 48 h [2]: 31.5 nM
- concentration at 72 h [1]: 32.8 nM
- concentration at 72 h [2]: 31.3 nM
- concentration at 96 h [1]: 39.5 nM
- concentration at 96 h [2]: 32.6 nM
- concentration at 168 h [1]: 41.8 nM
- concentration at 168 h [2]: 39.2 nM
- concentration at 336 h [1]: 99.2 nM
- concentration at 336 h [2]: 129 nM
- concentration at 504 h [1]: 122 nM
- concentration at 504 h [2]: 151 nM
- concentration at 672 h [1]: 95.3 nM
- concentration at 672 h [2]: 122 nM
- concentration at 840 h [1]: 53.3 nM
- concentration at 840 h [2]: 58.9 nM
- concentration at 1008 h [1]: 29.1 nM
- concentration at 1008 h [2]: 30.2 nM
- concentration at 1344 h [1]: 26.9 nM
- concentration at 1344 h [2]: 23.8 nM
- concentration at 1680 h [1]: 13.7 nM
- concentration at 1680 h [2]: 12.3 nM
- concentration at 2016 h (male, beagle, dog, plasma, sc, 6 mg/kg, 2016 h, mean, n = 3 dogs, SC 6 mg/kg, solution V, 300 mg/mL): 8.5 nM
- concentration at 2352 h [1]: 4.5 nM
- concentration at 2352 h [2]: 4.7 nM
- concentration at 2688 h [1]: 2.1 nM
- concentration at 2688 h [2]: 2.7 nM
- concentration at 3024 h [1]: 2.5 nM
- concentration at 3024 h [2]: 2.3 nM
- concentration at 3360 h [1]: 1.5 nM
- concentration at 3360 h [2]: 1.3 nM
- AUC(0-inf) [3]: 113 ± 12 µM·h
- Cmax [3]: 155 ± 30 nM
- Tmax [3]: 18.7 ± 4.04 days
- half-life [3]: 25.5 days
- AUC(0-t) (male, beagle, dog, plasma, sc, 6 mg/kg, mean ± SD, n = 3 dogs, SC 6 mg/kg, solution V, 300 mg/mL, read-out: AUC0-24 h): 0.304 ± 0.028 µM·h
- AUC(0-t) (male, beagle, dog, plasma, sc, 6 mg/kg, mean ± SD, n = 3 dogs, SC 6 mg/kg, solution V, 300 mg/mL, read-out: AUC0-168 h): 5.07 ± 0.5 µM·h
- AUC(0-t) (male, beagle, dog, plasma, sc, 6 mg/kg, mean ± SD, n = 3 dogs, SC 6 mg/kg, solution V, 300 mg/mL, read-out: AUC0-672 h): 65.6 ± 9.9 µM·h
- AUC(0-t) (male, beagle, dog, plasma, sc, 6 mg/kg, mean ± SD, n = 3 dogs, SC 6 mg/kg, solution V, 300 mg/mL, read-out: AUC0-1344 h): 97.4 ± 12.7 µM·h
- AUC(0-t) (male, beagle, dog, plasma, sc, 6 mg/kg, mean ± SD, n = 3 dogs, SC 6 mg/kg, solution V, 300 mg/mL, read-out: AUC0-1680 h): 103 ± 12 µM·h
